Test results as given in patent US8178530B2, “Imidazolopyrazine compounds useful for the treatment of degenerative and inflammatory diseases” (Janssen Pharmaceutica NV, priority 2006, dated 2012).

How the values were obtained:
MMP1 expression by SFs = assay: 'MMP assay': MMP1 expression by 'complex trigger' activated synovial fibroblasts (MMP1 ELISA); type: cell-based, human; conditions: Homo sapiens, Fibroblast, RASFs, 48 hrs
Experimental: A 384-well format ELISA for measurement of MMP1 is developed. Various primary antibodies are tested, as well as various ELISA protocols. The following protocol is developed and validated to measure MMP1 levels in SF supernatant in 384 well plates: white Lumitrac 600 384 well plates (Greiner) are coated with 2 μg/mL anti-MMP1 antibody MAB1346 (Chemicon). The antibody is diluted in buffer 40 (1.21 g Tris base (Sigma), 0.58 g NaCl (Calbiochem) and 5 ml 10% NaN3 (Sigma) in 1 L milliQ water and adjusted to pH 8.5). After overnight incubation at 4° C., plates are washed with PBS (80 g NaCl, 2 g KCl (Sigma), 11.5 g Na2HPO4.7H2O and 2 g KH2PO4 in 10 L milliQ; pH 7.4) and blocked with 100 μL/well Casein buffer (2% Casein (VWR International) in PBS). Next day, casein buffer is removed from ELISA plates and replaced by 50 μL/well EC buffer (4 g casein, 2.13 g Na2HPO4 (Sigma), 2 g bovine albumin (Sigma), 0.69 g NaH2PO4.H2O (Sigma), 0.5 g CHAPS (Roche), 23.3 g NaCl, 4 mL 0.5 M EDTA pH 8 (Invitrogen), 5 mL 10% NaN3 in 1 L milliQ and adjusted to pH 7.0). 0.25 mM DTT (Sigma) is added to the thawed samples plates. After removal of the EC buffer, 20 μL of sample is transferred to the ELISA plates. After overnight incubation at 4° C. plates are washed twice with PBS and once with PBST (PBS with 0.05% Tween-20 (Sigma)) and incubated with 35 μL/well biotinylated anti-MMP1 antibody solution (R&D). This secondary antibody is diluted in buffer C (0.82 g NaH2PO4.H2O, 4.82 g Na2HPO4, 46.6 g NaCl, 20 g bovine albumin and 4 mL 0.5M EDTA pH 8 in 2 L milliQ and adjusted to pH 7.0) at a concentration of 5 μg/mL. After 2 h of incubation at RT, plates are washed as described above and incubated with 50 μL/well streptavidin-HRP conjugate (Biosource). Streptavidin-HRP conjugate is diluted in buffer C at a concentration of 0.25 μg/mL. After 45 min, plates are washed as described above and incubated for 5 min with 50 μL/well BM Chem ELISA Substrate (Roche). Readout is performed on the Luminoscan Ascent Luminometer (Labsystems) with an integration time of 200 msec or with an Envision reader (Perkin Elmer).
The increase of MMP1 expression by SFs upon treatment with cytokines relevant in the field of RA (TNF-α, IL1β and OSM) or a combination thereof is shown in FIG. 2 as white bars. For this experiment, SFs are seeded in 96 well plates, 3,000 cells/well. 24 h later, the medium is changed to M199 medium supplemented with 1% FBS. One day after the medium change, cytokines or combinations thereof are added to the cultures, each cytokine being added to a final concentration of 25 ng/mL. 72 h after cytokine addition, the supernatant is collected and processed in the MMP1 ELISA as described in the protocol given above. In parallel with this experiment, SFs are triggered, using the same protocol, with the supernatant of THP1 cells (2-fold diluted in M199+1% FBS) treated with the same cytokines or combinations of cytokines for 48 h in M199 medium+1% FBS. The induction of the MMP1 expression by SFs triggered with the supernatants of TNF-α-treated THP1 cells is stronger (>4.5 fold induction) as compared to the SFs triggered with recombinant TNF-α alone (3-fold induction) and almost equals the 5-fold induction obtained by a mixture of 3 purified cytokines (TNF-α, IL1βb, OSM). […] As the role of TNF-α in the RA pathogenesis is validated (TNF-α-blockers such as Infliximab and Etanercept show some efficacy in the treatment of RA patients) and the THP-1 cells are representative for monocytes/macrophages present in the joint of RA patients, the TNF-α-based trigger mixture prepared by contacting THP-1 cells with TNF-α will contain factors present in the joints of RA patients and subsequently is relevant to RA. This TNF-α-based complex trigger, further referred to as the ‘complex trigger’, will further be used as basis for the ‘MMP assay’.
Dexamethasone is shown to dose-dependently reduce amounts of MMP1 produced by complex trigger activated SFs. […]

MAPKAPK5 = target: T1, MAPKAPK5 (Homo sapiens, UniProt Q8IW41); assay: MAPKAP-K5 assay (FlashPlate, 33P-ATP); type: biochemical; conditions: 0.6 μM ATP, 30 minutes at room temperature
T1 construct: 1 mU MAPKAP-K5
T1 sequence (Q8IW41 1-473): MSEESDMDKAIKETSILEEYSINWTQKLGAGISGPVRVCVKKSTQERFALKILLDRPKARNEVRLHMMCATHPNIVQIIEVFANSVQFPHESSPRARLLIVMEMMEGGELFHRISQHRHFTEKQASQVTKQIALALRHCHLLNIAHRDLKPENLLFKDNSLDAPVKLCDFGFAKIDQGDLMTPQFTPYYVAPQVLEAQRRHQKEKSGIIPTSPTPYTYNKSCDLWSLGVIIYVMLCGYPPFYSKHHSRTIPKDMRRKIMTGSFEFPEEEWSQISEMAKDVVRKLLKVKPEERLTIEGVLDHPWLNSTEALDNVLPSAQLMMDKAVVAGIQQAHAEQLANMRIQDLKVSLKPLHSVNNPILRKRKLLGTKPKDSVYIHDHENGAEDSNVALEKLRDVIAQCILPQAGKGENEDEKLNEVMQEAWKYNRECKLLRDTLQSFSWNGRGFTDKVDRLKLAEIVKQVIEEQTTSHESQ
Experimental: 3 μM MAPKAP-K5 peptide substrate

| SMILES | IC50 (MAPKAPK5) [nM] | EC50 (MMP1 expression by SFs) [nM] |
| --- | --- | --- |
| CCN(CCO)c1ccc(Nc2ncc(-c3ccc(C(N)=O)cc3)n3ccnc23)cc1 [Compound 4] | > 1000 | 101 to 500 |
| O=C(O)c1ccc(-c2cnc(Nc3ccc(C(=O)NCc4cccnc4)cc3)c3nccn23)cc1 [Compound 44] | > 1000 | > 1000 |
| CCN(CC)CCNC(=O)c1ccc(Nc2ncc(-c3n[nH]c(C)n3)n3ccnc23)cc1 [Compound 106] | > 1000 | > 1000 |
| O=C(NCc1ccc(O)cc1)c1ccc(Nc2ncc(-c3cc[nH]c(=O)c3)n3ccnc23)cc1 [Compound 112] | 101 to 500 | 101 to 500 |
| COc1cc(Nc2ncc(-c3cn[nH]c3)n3ccnc23)ccc1C(=O)NCc1ccc(C)nc1 [Compound 184, 2-Methoxy-N-(6-methylpyridin-3-ylmethyl)-4-[5-(1H-pyrazol-4-yl)imidazo[1,2-a]pyrazin-8-ylamino]benzamide] | – | 101 to 500 |
| CC(C)Oc1ccc(Nc2ncc(-c3ccc(C(N)=O)c(F)c3)n3ccnc23)cc1 [Compound 148] | > 1000 | 501 to 1000 |
| CCN(CC)CCNC(=O)c1ccc(Nc2ncc(-c3ccc(S(C)(=O)=O)cc3)n3ccnc23)cc1 [Compound 79] | > 1000 | > 1000 |
| CCN(CC)CCNC(=O)c1ccc(Nc2ncc(-c3ccc(O)cc3C(F)(F)F)n3ccnc23)cc1 [Compound 75] | > 1000 | > 1000 |
| Cc1n[nH]cc1-c1cnc(Nc2ccc(C3CCN(CC(N)=O)CC3)cc2)c2nccn12 [Compound 225, 2-(4-{4-[5-(3-Methyl-1H-pyrazol-4-yl)imidazo[1,2-a]pyrazin-8-ylamino]phenyl}piperidin-1-yl)acetamide] | 501 to 1000 | > 1000 |
| CCN(CC)CCNC(=O)c1ccc(Nc2ncc(-c3nc[nH]n3)n3ccnc23)cc1 [Compound 105] | > 1000 | > 1000 |
| O=C1NCc2cc(-c3cnc(Nc4cncnc4)c4nccn34)ccc21 [Compound 230] | 101 to 500 | – |
| O=C(Nc1ccc(Nc2ncc(-c3cn[nH]c3)n3ccnc23)cn1)c1ccccc1 [Compound 183, N-{5-[5-(1H-Pyrazol-4-yl)imidazopyrazin-8-ylamino]pyridin-2-yl}benzamide] | > 1000 | 101 to 500 |
| COc1cc(Nc2ncc(-c3csc(C(N)=O)c3)n3ccnc23)ccc1C(=O)NCc1ccccc1 [Compound 191] | > 1000 | > 1000 |
| CCN(CCO)c1ccc(Nc2ncc(-c3ccc(O)cc3C)n3ccnc23)cc1 [Compound 3] | > 1000 | – |
| CCc1cnc2c(Nc3ccc(N4CCOCC4)cc3)ncc(-c3cn[nH]c3)n12 [Compound 189, [3-Ethyl-5-(1H-pyrazol-4-yl)imidazo[1,2-a]pyrazin-8-yl]-(4-morpholin-4-yl-phenyl)amine] | – | 501 to 1000 |
| CC(C)N1CCN(c2ccc(Nc3ncc(-c4cc5c(s4)C(=O)NC5)n4ccnc34)cc2)CC1 [Compound 228] | 101 to 500 | – |

Second part, led by results:

| IC50 (MAPKAPK5) [nM] | SMILES | EC50 (MMP1 expression by SFs) [nM] |
| --- | --- | --- |
| > 1000 | CN(C)c1cc(-c2cnc(Nc3ccc(N4CCOCC4)cc3)c3nccn23)ccn1 [Compound 111, [5-(2-Dimethylamino-pyridin-4-yl)-imidazo[1,2-a]pyrazin-8-yl]-(4-morpholin-4-yl-phenyl)-amine] | > 1000 |
| > 1000 | O=C(Cc1ccccc1)Nc1ccc(Nc2ncc(-c3cn[nH]c3)n3ccnc23)cn1 [Compound 200, 2-Phenyl-N-{5-[5-(1H-pyrazol-4-yl)imidazo[1,2-a]pyrazin-8-ylamino]pyridin-2-yl}acetamide] | 101 to 500 |
| > 1000 | Nc1cc(C(=O)O)ccc1-c1cnc(Nc2ccc(N3CCOCC3)cc2)c2nccn12 [Compound 40] | > 1000 |
| > 1000 | c1cn2c(-c3cn[nH]n3)cnc(Nc3ccc(N4CCOCC4)cc3)c2n1 [Compound 67] | > 1000 |
| > 1000 | Cc1cc(-c2cnc(Nc3ccc(N4CCOCC4)cc3)c3nccn23)ccc1C(N)=O [Compound 185] | 501 to 1000 |
| > 1000 | CCc1cnc2c(Nc3ccc(N4CCOCC4)cc3)ncc(-c3cc[nH]c(=O)c3)n12 [Compound 180] | – |
| 501 to 1000 | NC(=O)CN1CCC(c2ccc(Nc3ncc(-c4cn[nH]c4)n4ccnc34)cc2)CC1 [Compound 224, 2-(4-{4-[5-(1H-Pyrazol-4-yl)imidazo[1,2-a]pyrazin-8-ylamino]phenyl}piperidin-1-yl)acetamide] | > 1000 |
| > 1000 | CN1CCN(S(=O)(=O)c2ccc(Nc3ncc(-c4cn[nH]c4)n4ccnc34)cc2)CC1 [Compound 70] | > 1000 |
| > 1000 | O=C(O)c1cccc(Nc2ncc(-c3cn[nH]c3)n3ccnc23)c1 [Compound 51] | > 1000 |
| > 1000 | c1cn2c(-c3cn[nH]c3)cnc(Nc3ccc(N4CCOCC4)cn3)c2n1 [Compound 208, N-(5-Morpholinopyridin-2-yl)-5-(1H-pyrazol-4-yl)imidazo[1,2-a]pyrazin-8-amine] | > 1000 |
| > 1000 | CCc1cnc2c(Nc3ccc(N4CCOCC4)cc3)ncc(-c3ccc(C(N)=O)cc3)n12 [Compound 162, 4-[3-Ethyl-8-(4-morpholin-4-ylphenylamino)-imidazo[1,2-a]pyrazin-5-yl]benzamide] | 501 to 1000 |
| > 1000 | CC(C)(C)OC(=O)c1ccc(Nc2ncc(-c3cn[nH]c3)n3ccnc23)cc1 [Compound 22] | > 1000 |
| 101 to 500 | O=C1NCc2oc(-c3cnc(Nc4ccc(N5CCOCC5)cc4)c4nccn34)cc21 [Compound 217, 2-[8-(4-Morpholin-4-yl-phenylamino)-imidazo[1,2-a]pyrazin5-yl]-5,6-dihydro-furo[2,3-c]pyrrol-4-one] | > 1000 |
| > 1000 | Cc1cc(Nc2ncc(-c3cn[nH]c3)n3ccnc23)ccc1C(N)=O [Compound 33] | > 1000 |
| 1 to 100 | O=C1NCc2cc(-c3cnc(Nc4ccc(N5CCOCC5)nc4)c4nccn34)ccc21 [Compound 214] | > 1000 |
| > 1000 | Cc1cnc2c(Nc3ccc(N4CCOCC4)cc3)ncc(-c3cc[nH]c(=O)c3)n12 [Compound 135] | > 1000 |
| > 1000 | c1cn2c(-c3cn[nH]c3)cnc(NCc3ccc(N4CCOCC4)cc3)c2n1 [Compound 8] | – |
| 501 to 1000 | CN1CCN(c2ccc(Nc3ncc(-c4ccc(C(N)=O)cc4)n4ccnc34)cc2)CC1 [Compound 26] | – |
